The record followed here is patent US20090131354A1, “miR-126 REGULATED GENES AND PATHWAYS AS TARGETS FOR THERAPEUTIC INTERVENTION” (priority 2007, published 2009).

Data set [1] concerns PPC-1 prostate cancer cells. Description: Long-term growth curve with repeated electroporation, PPC-1. Type of data set: cell-based, human. From the text: To evaluate the therapeutic activity of hsa-miR-126 over an extended period of time, we conducted growth curve experiments in the presence of miRNA for up to 21 days. Since in vitro transfections of naked interfering RNAs, such as synthetic miRNA, are transient by nature and compromised by the dilution of the oligonucleotide during ongoing cell divisions, we administered miRNA at multiple time points (Bartlett and Davis, 2006; Bartlett and Davis, 2007). To accommodate miRNA delivery into a large quantity of cells, we employed the electroporation method to delivery hsa-miR-126 or negative control miRNA into PPC-1, PC3 and Du145 human prostate cancer cells. Briefly, 1×10^6 PPC-1 or PC3 cells, and 0.5×10^6 Du145 cells were electroporated with 1.6 μM hsa-miR-126 or negative control using the BioRad Gene Pulser Xcell™ instrument (BioRad Laboratories Inc., Hercules, Calif., USA), seeded and propagated in regular growth medium. Experiments with PC3 and Du145 cells were carried out in triplicates. When the control cells reached confluence (days 4 and 11 for PPC-1; days 7 and 14 for PC3 and Du145), cells were harvested, counted and electroporated again with the respective miRNAs. […] The population doubling was calculated from these electroporation events using the formula PD=ln(Nf/N0)/ln2, and cell counts were extrapolated and plotted on a linear scale (FIGS. 10-12). […]

Data set [2] deals with lung cancer cells A549, H1299, H522, H838, Calu-3, HCC827, HCC2935, H520, H1650, H460, H226. Description: Alamar Blue proliferation assay, all lung cancer cell lines tested. Type of data set: cell-based, human. The note with it: 30 nM. From the text: The inventors assessed the therapeutic effect of hsa-miR-126 for lung cancer by using 11 individual lung cancer cell lines. To measure cellular proliferation of lung cancer cells, the following non-small cell lung cancer (NSCLC) cells were used: cells derived from lung adenocarcinoma (A549, H1299, H522, H838, Calu-3, HCC827, HCC2935), cells derived from lung squamous cell carcinoma (H520, H226), cells derived from lung bronchioalveolar carcinoma (H1650), and cells derived from lung large cell carcinoma (H460). Synthetic hsa-miR-126 (Pre-miR™-hsa-miR-126, Ambion cat. no. AM17100) or negative control (NC) miRNA (Pre-miR™ microRNA Precursor Molecule-Negative Control #2; Ambion cat. no. AM17111) was delivered via lipid-based transfection into A549, H1299, H522, H838, Calu-3, HCC827, HCC2935, H520, H1650, and H460 cells, and via electroporation into H226 cells.
Lipid-based reverse transfections were carried out in triplicate according to a published protocol (Ovcharenko et al., 2005) and the following parameters: Cells (5,000-12,000 per 96 well), 0.1-0.2 μl Lipofectamine™ 2000 (cat. no. 11668-019, Invitrogen Corp., Carlsbad, Calif., USA) in 20 μl OptiMEM (Invitrogen), 30 nM final concentration of miRNA in 100 μl. […]

“hsa-miR-126 (UCGUACCGUGAGUAAUAAUGC; synthetic pre-miR form, further chemistry not given here) [Synthetic hsa-miR-126 (Pre-miR™-hsa-miR-126, Ambion cat. no. AM17100)]”: the “inhibition of cell growth” value in data set [1] (PPC-1, day 18, 1.6 μM repeated electroporation, relative to control cells (100%)) was determined as 91.3%. In data set [1] (PPC-1, day 18, relative to control cells (100%)), the remaining cells was 8.7%. The “average inhibition of cellular proliferation” value in data set [2] (average of 11 lung cancer cell lines) is 25.33%. Also, the “growth-inhibitory activity compared with etoposide” value in data set [2] (lung cancer cell lines) is recorded as “comparable to that of etoposide at concentrations >10 μM”.
